Source: PubChem BioAssay AID2060508 (Molecular Pharmacology Branch, DTP, NCI, 2025)

Test system: 454973-116-R2-J3-PDC spheroids, viability, % test/control
Test: Anticancer human tumor 454973-116-R2-J3-PDC patient-derived pancreatic carcinoma cell line growth inhibition [GQUAD]
Conditions: spheroids with HUVEC and MSC; for IC50: curve of first compound; for viability, T/C: stronger effect = lower value
Method in brief: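 Multi-cell-type spheroids of tumor cells with HUVEC and mesenchymal stem cells, treated with drug combinations. Concentrations descend in half-log steps from near clinical Cmax, or from 10 microM where Cmax is unknown; viability read-out.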

[1] = second compound 0.0316 µM, first compound 0.0316 µM
[2] = second compound 0.0316 µM, first compound 0.1 µM
[3] = second compound 0.0316 µM, first compound 0.316 µM
[4] = second compound 0.0316 µM, first compound 1 µM
[5] = second compound 0.0316 µM, first compound 3.16 µM
[6] = second compound 0.0316 µM, first compound 10 µM
[7] = second compound 0.1 µM, first compound 0.0316 µM
[8] = second compound 0.1 µM, first compound 0.1 µM
[9] = second compound 0.1 µM, first compound 0.316 µM
[10] = second compound 0.1 µM, first compound 1 µM
[11] = second compound 0.1 µM, first compound 3.16 µM
[12] = second compound 0.1 µM, first compound 10 µM
[13] = second compound 0.316 µM, first compound 0.0316 µM
[14] = second compound 0.316 µM, first compound 0.1 µM
[15] = second compound 0.316 µM, first compound 0.316 µM
[16] = second compound 0.316 µM, first compound 1 µM
[17] = second compound 0.316 µM, first compound 3.16 µM
[18] = second compound 0.316 µM, first compound 10 µM
[19] = second compound 1 µM, first compound 0.0316 µM
[20] = second compound 1 µM, first compound 0.1 µM
[21] = second compound 1 µM, first compound 0.316 µM
[22] = second compound 1 µM, first compound 1 µM
[23] = second compound 1 µM, first compound 3.16 µM
[24] = second compound 1 µM, first compound 10 µM
[25] = second compound 3.16 µM, first compound 0.0316 µM
[26] = second compound 3.16 µM, first compound 0.1 µM
[27] = second compound 3.16 µM, first compound 0.316 µM
[28] = second compound 3.16 µM, first compound 1 µM
[29] = second compound 3.16 µM, first compound 3.16 µM
[30] = second compound 3.16 µM, first compound 10 µM
[31] = second compound 10 µM, first compound 0.0316 µM
[32] = second compound 10 µM, first compound 0.1 µM
[33] = second compound 10 µM, first compound 0.316 µM
[34] = second compound 10 µM, first compound 1 µM
[35] = second compound 10 µM, first compound 3.16 µM
[36] = second compound 10 µM, first compound 10 µM
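Note: spheroids exposed to compounds for seven days.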
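Throughout, for viability, T/C: 100% = DMSO vehicle control viability.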

## COc1cc(C2c3cc4c(cc3C(OC3OC5COC(C)OC5C(O)C3O)C3COC(=O)C23)OCO4)cc(OC)c1O (stereo not drawn) + CN(C)c1ccc(Nc2c3ccc(NC(=O)CCN4CCCC4)cc3nc3cc(NC(=O)CCN4CCCC4)ccc23)cc1
Second compound 0.0316 µM
  IC50: 1240 nM
Second compound 0.1 µM
  IC50: 1270 nM
Second compound 0.316 µM
  IC50: 1090 nM
Second compound 1 µM
  IC50: 790 nM
Second compound 3.16 µM
  IC50: 749 nM
Second compound 10 µM
  IC50: 821 nM
[1]
  viability, T/C: 102%
[2]
  viability, T/C: 95.6%
[3]
  viability, T/C: 87.9%
[4]
  viability, T/C: 55.1%
[5]
  viability, T/C: 25.9%
[6]
  viability, T/C: 15%
[7]
  viability, T/C: 106%
[8]
  viability, T/C: 98.7%
[9]
  viability, T/C: 89.1%
[10]
  viability, T/C: 58.8%
[11]
  viability, T/C: 21.3%
[12]
  viability, T/C: 15.3%
[13]
  viability, T/C: 97.3%
[14]
  viability, T/C: 98.7%
[15]
  viability, T/C: 78.8%
[16]
  viability, T/C: 51.8%
[17]
  viability, T/C: 27.2%
[18]
  viability, T/C: 14.3%
[19]
  viability, T/C: 105%
[20]
  viability, T/C: 89.1%
[21]
  viability, T/C: 78%
[22]
  viability, T/C: 39.4%
[23]
  viability, T/C: 28.7%
[24]
  viability, T/C: 15.7%
[25]
  viability, T/C: 89.2%
[26]
  viability, T/C: 88.7%
[27]
  viability, T/C: 80.5%
[28]
  viability, T/C: 38.5%
[29]
  viability, T/C: 31.6%
[30]
  viability, T/C: 16.3%
[31]
  viability, T/C: 79.2%
[32]
  viability, T/C: 71.3%
[33]
  viability, T/C: 66.2%
[34]
  viability, T/C: 45.5%
[35]
  viability, T/C: 31.8%
[36]
  viability, T/C: 20.9%

## COc1cccc2c1C(=O)c1c(O)c3c(c(O)c1C2=O)CC(O)(C(=O)CO)CC3OC1CC(N)C(O)C(C)O1 (stereo not drawn) + CN(C)c1ccc(Nc2c3ccc(NC(=O)CCN4CCCC4)cc3nc3cc(NC(=O)CCN4CCCC4)ccc23)cc1
Second compound 0.0316 µM
  IC50: 236 nM
Second compound 0.1 µM
  IC50: 242 nM
Second compound 0.316 µM
  IC50: 255 nM
Second compound 1 µM
  IC50: 253 nM
Second compound 3.16 µM
  IC50: 405 nM
Second compound 10 µM
  IC50: 410 nM
[1]
  viability, T/C: 104%
[2]
  viability, T/C: 72.1%
[3]
  viability, T/C: 33%
[4]
  viability, T/C: 33.2%
[5]
  viability, T/C: 20.6%
[6]
  viability, T/C: 1.74%
[7]
  viability, T/C: 98.9%
[8]
  viability, T/C: 71.8%
[9]
  viability, T/C: 36.3%
[10]
  viability, T/C: 31.1%
[11]
  viability, T/C: 20.8%
[12]
  viability, T/C: 2.34%
[13]
  viability, T/C: 100%
[14]
  viability, T/C: 69.8%
[15]
  viability, T/C: 33.4%
[16]
  viability, T/C: 40.5%
[17]
  viability, T/C: 22.4%
[18]
  viability, T/C: 2.19%
[19]
  viability, T/C: 97.5%
[20]
  viability, T/C: 63%
[21]
  viability, T/C: 36%
[22]
  viability, T/C: 42.2%
[23]
  viability, T/C: 29.4%
[24]
  viability, T/C: 3.18%
[25]
  viability, T/C: 88.3%
[26]
  viability, T/C: 72.6%
[27]
  viability, T/C: 40.2%
[28]
  viability, T/C: 44.2%
[29]
  viability, T/C: 27.9%
[30]
  viability, T/C: 2.27%
[31]
  viability, T/C: 79.1%
[32]
  viability, T/C: 61.1%
[33]
  viability, T/C: 44.1%
[34]
  viability, T/C: 47.2%
[35]
  viability, T/C: 31.1%
[36]
  viability, T/C: 3.01%

## Nc1ccn(C2OC(CO)C(O)C2(F)F)c(=O)n1 (stereo not drawn) + CN(C)c1ccc(Nc2c3ccc(NC(=O)CCN4CCCC4)cc3nc3cc(NC(=O)CCN4CCCC4)ccc23)cc1
Second compound 0.0316 µM
  IC50: < 31.6 nM
Second compound 0.1 µM
  IC50: < 31.6 nM
Second compound 0.316 µM
  IC50: < 31.6 nM
Second compound 1 µM
  IC50: < 31.6 nM
Second compound 3.16 µM
  IC50: < 31.6 nM
Second compound 10 µM
  IC50: < 31.6 nM
[1]
  viability, T/C: 19%
[2]
  viability, T/C: 13.3%
[3]
  viability, T/C: 16.6%
[4]
  viability, T/C: 13.1%
[5]
  viability, T/C: 14.7%
[6]
  viability, T/C: 15.6%
[7]
  viability, T/C: 20.7%
[8]
  viability, T/C: 13.5%
[9]
  viability, T/C: 14.9%
[10]
  viability, T/C: 16.6%
[11]
  viability, T/C: 13.2%
[12]
  viability, T/C: 15.4%
[13]
  viability, T/C: 16.9%
[14]
  viability, T/C: 15.3%
[15]
  viability, T/C: 15.3%
[16]
  viability, T/C: 14.8%
[17]
  viability, T/C: 13.3%
[18]
  viability, T/C: 14.8%
[19]
  viability, T/C: 15.6%
[20]
  viability, T/C: 14.4%
[21]
  viability, T/C: 16.4%
[22]
  viability, T/C: 14%
[23]
  viability, T/C: 14.2%
[24]
  viability, T/C: 15.9%
[25]
  viability, T/C: 18%
[26]
  viability, T/C: 14.7%
[27]
  viability, T/C: 17.4%
[28]
  viability, T/C: 13.3%
[29]
  viability, T/C: 14.6%
[30]
  viability, T/C: 14.7%
[31]
  viability, T/C: 22.8%
[32]
  viability, T/C: 14.2%
[33]
  viability, T/C: 16.9%
[34]
  viability, T/C: 17.6%
[35]
  viability, T/C: 19.7%
[36]
  viability, T/C: 19.8%

## O=c1[nH]cc(F)c(=O)[nH]1 + CN(C)c1ccc(Nc2c3ccc(NC(=O)CCN4CCCC4)cc3nc3cc(NC(=O)CCN4CCCC4)ccc23)cc1
Second compound 0.0316 µM
  IC50: 2120 nM
Second compound 0.1 µM
  IC50: 2060 nM
Second compound 0.316 µM
  IC50: 2250 nM
Second compound 1 µM
  IC50: 1460 nM
Second compound 3.16 µM
  IC50: 1580 nM
Second compound 10 µM
  IC50: 1920 nM
[1]
  viability, T/C: 114%
[2]
  viability, T/C: 98.1%
[3]
  viability, T/C: 108%
[4]
  viability, T/C: 84.2%
[5]
  viability, T/C: 32.1%
[6]
  viability, T/C: 30.2%
[7]
  viability, T/C: 106%
[8]
  viability, T/C: 95.6%
[9]
  viability, T/C: 103%
[10]
  viability, T/C: 83.4%
[11]
  viability, T/C: 28.5%
[12]
  viability, T/C: 31.7%
[13]
  viability, T/C: 102%
[14]
  viability, T/C: 103%
[15]
  viability, T/C: 96.8%
[16]
  viability, T/C: 81.1%
[17]
  viability, T/C: 35.1%
[18]
  viability, T/C: 38.6%
[19]
  viability, T/C: 92.5%
[20]
  viability, T/C: 99%
[21]
  viability, T/C: 89.2%
[22]
  viability, T/C: 56.9%
[23]
  viability, T/C: 35.7%
[24]
  viability, T/C: 35.1%
[25]
  viability, T/C: 89.5%
[26]
  viability, T/C: 71.5%
[27]
  viability, T/C: 95.7%
[28]
  viability, T/C: 59.9%
[29]
  viability, T/C: 32.2%
[30]
  viability, T/C: 37.6%
[31]
  viability, T/C: 78.9%
[32]
  viability, T/C: 74.2%
[33]
  viability, T/C: 78%
[34]
  viability, T/C: 64.8%
[35]
  viability, T/C: 38.7%
[36]
  viability, T/C: 36%
